Laboratory results published in patent US20070074967A1, “Photodegradable protective group” (The University of Tokyo, priority 2005, published 2007).

Assay: Photodeprotection by irradiation with light of 470 nm (absorption spectra, fluorescence)
Assay type: physicochemical
Conditions: for Change of absorption peaks around 450 nm with the light irradiation / Change of absorption peaks around 490 nm with the light irradiation (release of 6-hydroxy-9-o-toluylxanthen-3-one by deprotection): 3 μM in 0.1 M sodium phosphate buffer (pH 7.4), 10% N,N-dimethylformamide, light of 470 nm, argon laser, FIG. 1
Description: 3,5-DNB-2-Me TG obtained in Example 1 and o-NB-2-Me TG obtained in Example 2 were each dissolved in 0.1 M sodium phosphate buffer (pH 7.4) at a concentration of 3 μM. As a cosolvent, 10% N,N-dimethylformamide was added.
Light of 470 nm was irradiated by using an argon laser. One cycle consisted of 128 pulses×10 times.
It can be understood that the peaks around 450 nm observed for 3,5-DNB-2-Me TG and o-NB-2-Me TG were lowered, and the peaks around 490 nm were highered with the light irradiation. This is because 6-hydroxy-9-o-toluylxanthen-3-one was released from the compounds by deprotection.

| SMILES | Change of absorption peaks around 450 nm with the light irradiation | Change of absorption peaks around 490 nm with the light irradiation (release of 6-hydroxy-9-o-toluylxanthen-3-one by deprotection) | Fluorescence provided by released 6-hydroxy-9-o-toluylxanthen-3-one on irradiation (irradiated with light of 470 nm, FIG. 2) |
| --- | --- | --- | --- |
| Cc1ccccc1-c1c2ccc(=O)cc-2oc2cc(OCc3cc([N+](=O)[O-])cc([N+](=O)[O-])c3)ccc12 [3,5-DNB-2-Me TG, 6-(3,5-dinitrobenzyloxy)-9-o-toluylxanthen-3-one] | lowered | highered | increase of fluorescence |
| Cc1ccccc1-c1c2ccc(=O)cc-2oc2cc(OCc3ccccc3[N+](=O)[O-])ccc12 [o-NB-2-Me TG, 6-(2-nitrobenzyloxy)-9-o-toluylxanthen-3-one] | lowered | highered |  |
